This is an account of results in patent US7329686B2, “Substituted thiophene compounds” (AstraZeneca AB, priority 2002, dated 2008).

Usually IC50 stands for the concentration that inhibits the measured activity by half.

The target of one experiment is T1, Nitric oxide synthase (Mus musculus, UniProt P29477).
T1 construct: endogenous in cells; host or cells: J774A-1 murine macrophage cell line, induced with LPS and IFN-gamma; crude lysate
As to the kind of experiment: Screen 1: nitric oxide synthase inhibition, 3H-L-arginine to 3H-L-citrulline conversion, lysate of induced J774A-1 cells. It counts as biochemical. The following applies: enzyme from LPS/IFNg-induced murine macrophage cell line J774A-1; 1 hour at room temperature. As for the experimental part: The activity of compounds of formula (I), or a pharmaceutically acceptable salt, enantiomer or racemate thereof, may be screened for nitric oxide synthase inhibiting activity by a procedure based on that of Förstermann et al., Eur. J. Pharm., 1992, 225, 161-165. Nitric oxide synthase converts ^3H-L-arginine into ^3H-L-citrulline which can be separated by cation exchange chromatography and quantified by liquid scintillation counting.
Enzyme is prepared, after induction, from the cultured murine macrophage cell line J774A-1 (obtained from the laboratories of the Imperial Cancer Research Fund). J774A-1 cells are cultured in Dulbeccos Modified Eagles Medium (DMEM) supplemented with 10% foetal bovine serum, 4 mM L-glutamine and antibiotics (100 units/ml penicillin G, […] streptomycin & […] amphotericin B). Cells are routinely grown in […] flasks containing 35 ml medium kept at 37° C. and in a humidified atmosphere containing 5% CO2. […]
Labelled L-citrulline is separated from labelled L-arginine using Dowex AG-50W. […] After allowing the samples to dry the L-citrulline is quantified by scintillation counting.
In a typical experiment basal activity is 300 dpm per 75 μl sample which is increased to 1900 dpm in the reagent controls. […] Compounds are tested at a range of concentrations and from the inhibitions obtained IC50 values are calculated. […]

A further experiment deals with T2, Recombinant human iNOS (Homo sapiens, UniProt P35228).
T2 construct: made in house; host or cells: E. coli (lysate)
As to the kind of experiment: Screen 2: recombinant human NO synthase inhibition, L-[3H]citrulline formation. It counts as biochemical. The conditions noted are these: recombinant human iNOS expressed in E. coli; 60 min pre-incubation with NADPH. How it is done:
Recombinant human NO synthases (iNOS, eNOS & nNOS) were expressed in E. coli and lysates were prepared in Herpes buffer (pH 7.4) containing co-factors (FAD, FMN, H4B), protease inhibitors, lysozyme and the detergent, CHAPS. These preparations were used, at suitable dilution, to assess inhibition of the various isoforms. Inhibition of NOS was determined by measuring the formation of L-[^3H]citrulline from L-[^3H]arginine using an adaptation of the method of Förstermann et al.^9 Enzyme assays were performed in the presence of 3 μM [^3H]arginine, 1 mM NADPH and other co-factors required to support NOS activity (FAD, FMN, H4B, calmodulin, Ca^2+). […] Incubations continued for a further 60 min before the assays were quenched and [^3H]citrulline separated from unreacted substrate by chromatography on Dowex-50W resin in a 96-well format.

The target in experiment [1] is T3, human form of induced nitric oxide synthase (Homo sapiens, UniProt P35228).
T3 construct: Nitric oxide synthase was induced in cells by addition of medium containing human recombinant gamma-IFN; endogenous in cells; host or cells: DLD-1 human colorectal carcinoma cells (ECACC 90102540), induced with IFN-gamma, TNF-alpha, IL-6 and IL-1-beta
As to the kind of experiment: Screen 3: nitrite accumulation in cytokine-induced DLD-1 cells (Griess reagent). It counts as cell-based. The conditions noted are these: DLD-1 human colorectal carcinoma cells, nitrite accumulation over 5 hours. How it is done:
The human colorectal carcinoma cell line, DLD-1 (obtained from the European Collection of Animal Cell Culture—cell line number 90102540) was routinely grown in RPMI 1640 supplemented with 10% (v/v) foetal bovine serum, and 2 mM L-glutamine, at 37° C. in 5% CO2. Nitric oxide synthase was induced in cells by addition of medium containing human recombinant gamma-IFN (1000 units/ml), TNF-alpha (200 U/ml), IL-6 (200 U/ml) and IL-1-beta (250 U/ml). After incubation for 18 hours at 37° C., the medium was removed and the cells washed with warm phosphate buffered saline. Cells were incubated for a further 5 hours at 37° C./5% CO2 in RPMI 1640 containing 100 μM L-arginine and 100 μM verapamil-HCl in the presence and absence of test compounds. Nitrite accumulation was determined by mixing an equal volume of culture media with Griess reagent (10 mg/ml sulphanilamide, 1 mg N-(1-naphthyl)ethylenediamine in 1 ml 2.5% (v/v) phosphoric acid). Inhibition in the presence of compounds was calculated relative to the nitrite levels produced by untreated cells. IC50 values were estimated from a semi-log plot of % inhibition versus concentration of compound.
On the technique in general: Nitrite, measured by Griess reagent, commonly stands in for NO production.

Counter-ions that a name gives are not always drawn.

For the compound `Cc1cc(S[C@H](CN)c2ccccc2)c(C#N)s1` [Example 1, 3-[[(1S)-2-Amino 1-phenylethyl]thio]-5-methyl-2-thiophenecarbonitrile oxalate], the IC50 against Nitric oxide synthase was under 10 µM; on Recombinant human iNOS, under 10 µM; in experiment [1] it was under 100 µM.
